The source of these data is BindingDB's records for doi:10.1021/jm00006a013 (Universit&#224, 1995).

The target of this assay is sigma receptor (Cavia porcellus). Nature of the assay: In vitro binding affinity measured on sigma opioid receptor using [3H]DTG as radioligand.
Consider `COc1ccc2c(c1)C(SCCN1CCN(c3ccccc3OC)CC1)CCC2` (stereo unspecified) [1-(2-Methoxy-phenyl)-4-[2-(7-methoxy-1,2,3,4-tetrahydro-naphthalen-1-ylsulfanyl)-ethyl]-piperazine], for which the half-maximal inhibitory concentration (IC50) worked out at 138 nM. Then `COc1ccc2c(c1)C(CCCN1CCN(c3ccccn3)CC1)CCC2` (stereo unspecified) [1-[3-(7-Methoxy-1,2,3,4-tetrahydro-naphthalen-1-yl)-propyl]-4-pyridin-2-yl-piperazine], with 125 nM; and `COc1ccc2c(c1)C(CCCN1CCN(c3ccccc3OC)CC1)=CCC2` [1-[3-(7-Methoxy-3,4-dihydro-naphthalen-1-yl)-propyl]-4-(2-methoxy-phenyl)-piperazine], with 228 nM; and `COc1ccc2c(c1)C(CCCN1CCN(c3ccccn3)CC1)=CCC2` [1-[3-(7-Methoxy-3,4-dihydro-naphthalen-1-yl)-propyl]-4-pyridin-2-yl-piperazine], with 246 nM.

`COc1ccccc1N1CCN(CC/C=C2\CCCc3ccccc32)CC1` [1-{3-[3,4-Dihydro-2H-naphthalen-(1E)-ylidene]-propyl}-4-(2-methoxy-phenyl)-piperazine] registered an IC50 of 55 nM. In turn, `COc1ccccc1N1CCN(CC/C=C2\CCCc3c(OC)cccc32)CC1` [1-{3-[5-Methoxy-3,4-dihydro-2H-naphthalen-(1E)-ylidene]-propyl}-4-(2-methoxy-phenyl)-piperazine] gave an IC50 of 52.2 nM. The IC50 values of the last two compounds are within 1.5-fold of each other.
